Data on 1 molecule can be found in patent publication US20240238235A1, “METHODS AND COMPOSITIONS FOR TREATING PULMONARY ALVEOLAR PROTEINOSIS RELATED TO MARS MUTATIONS” (INSTITUT NATIONAL DE LA SANTÉ ET DE LA RECHERCHE MÉDICALE, priority 2021, published 2024).

The series relates to patients presenting pulmonary alveolar proteinosis due to the double mutation Ala393Thr/Ser567Leu in MARS. The text has this:
The MetPAP study was registered at clinicaltrials.gov (NCT03887169). […] The secondary objectives were to determine the efficacy of such treatment.

`CSCC[C@H](N)C(=O)O` [methionine, L-methionine]: the “elevated transaminases (multiple of normal value)” value (P3, D21, judged not attributable to a toxic effect of methionine) is more than 3 N. The “Tolerance of methionine supplementation” value (during the protocol and after) is on record as “well tolerated”.
